Earlier results in patent US9394312B1, “Ibrutinib prodrugs, pharmaceutical compositions thereof, and methods of use” (priority 2015, dated 2016).

Conditions: humans, combined with a meal versus fasted

C=CC(=O)N1CCC[C@@H](n2nc(-c3ccc(Oc4ccccc4)cc3)c3c(N)ncnc32)C1 [ibrutinib]
change of absolute bioavailability when combined with a meal: doubled
